Assay [1] can be described thus: P. falciparum 3D7-ScDHODH growth inhibitors, dose response, SYBR Green, dry powder samples (AID 1159570).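 Note: parasite growth measured after 72 hours of compound exposure.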 It counts as functional, cell-based.
A short description of assay [2]: HepG2 cell cytotoxicity, dose response, cytotoxicity control, plate reader, dry powder samples (AID 1159569).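 Note: inhibitor potency with signal falling toward the positive control level.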 It counts as functional, cell-based.
Assay [3] can be described thus: P. falciparum Dd2 growth inhibitors, dose response, SYBR Green, cherry-picked samples (AID 1159567). It counts as functional, cell-based.
Assay [4] can be described thus: P. falciparum Dd2 growth inhibitors, dose response, SYBR Green, dry powder samples (AID 1159566).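 Note: potency for growth inhibition with lower SYBR green DNA signal.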 It counts as functional, cell-based.
Assay [5] can be described thus: P. falciparum ATP4 D1247Y mutant growth inhibitors, dose response, NITD609-resistant line, SYBR Green, dry powder (AID 1159571).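 Note: parasites synchronized at ring stage by sorbitol before testing.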 It counts as functional, cell-based.
The nature of assay [6]: inhibitors of PGC1a acetylation in cells, dose response, cell-based, cherry-picked samples (AID 720514).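 Note: potency may reflect raised or lowered acetylation signal.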 It counts as functional.
In assay [7] the target is NAD-dependent protein deacylase sirtuin-5, mitochondrial (Homo sapiens, UniProt Q9NXA8). As to the kind of experiment: SIRT5 desuccinylase inhibitors, dose response, biochemical, fluorescence imaging, cherry-pick, set 5 (AID 720591).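 Note: desuccinylation of succinyl peptide AMC substrate read as fluorescence after trypsin release; potency of inhibitors that lower fluorescence and may act on trypsin instead.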
Chain of NAD-dependent protein deacylase sirtuin-5, mitochondrial (Q9NXA8 whole entry): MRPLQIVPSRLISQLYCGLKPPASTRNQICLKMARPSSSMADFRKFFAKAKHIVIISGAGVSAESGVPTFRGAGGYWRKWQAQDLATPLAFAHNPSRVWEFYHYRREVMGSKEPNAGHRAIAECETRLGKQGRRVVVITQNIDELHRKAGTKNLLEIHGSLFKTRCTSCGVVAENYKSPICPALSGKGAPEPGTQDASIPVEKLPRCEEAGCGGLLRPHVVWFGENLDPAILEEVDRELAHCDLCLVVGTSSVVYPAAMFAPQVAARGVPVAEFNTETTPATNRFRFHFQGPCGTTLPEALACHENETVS
Assay [8] deals with COUP transcription factor 2 (Homo sapiens, UniProt P24468). As to the kind of experiment: Luminescence-based cell-based high throughput dose response assay to identify inhibitors of COUP-TFII (NR2F2). It counts as functional.
Chain of COUP transcription factor 2 (P24468 whole entry): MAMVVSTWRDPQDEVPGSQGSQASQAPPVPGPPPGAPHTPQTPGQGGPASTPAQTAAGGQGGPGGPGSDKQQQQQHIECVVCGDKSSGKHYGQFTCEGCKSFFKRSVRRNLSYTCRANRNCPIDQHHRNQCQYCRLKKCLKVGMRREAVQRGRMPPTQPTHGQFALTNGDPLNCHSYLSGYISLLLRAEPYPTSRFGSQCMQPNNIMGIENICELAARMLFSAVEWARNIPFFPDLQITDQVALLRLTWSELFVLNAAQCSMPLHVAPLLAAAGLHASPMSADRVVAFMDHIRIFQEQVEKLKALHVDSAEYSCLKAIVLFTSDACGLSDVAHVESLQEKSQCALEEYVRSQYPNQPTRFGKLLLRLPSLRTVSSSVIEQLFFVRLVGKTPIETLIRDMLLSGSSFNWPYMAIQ
Assay [9] relates to Streptococcus sp. 'group A'. As to the kind of experiment: growth inhibition of control SK(-) GAS strain, dose response, counter-screen for streptokinase expression inhibitor project, luminescence, kanamycin, BacTiterGlo, confirmation (AID 1900). It counts as functional, organism-based.
Another assay deals with T1, Streptokinase A (Streptococcus pyogenes serotype M1, UniProt P10520).
T1 sequence (P10520 whole entry): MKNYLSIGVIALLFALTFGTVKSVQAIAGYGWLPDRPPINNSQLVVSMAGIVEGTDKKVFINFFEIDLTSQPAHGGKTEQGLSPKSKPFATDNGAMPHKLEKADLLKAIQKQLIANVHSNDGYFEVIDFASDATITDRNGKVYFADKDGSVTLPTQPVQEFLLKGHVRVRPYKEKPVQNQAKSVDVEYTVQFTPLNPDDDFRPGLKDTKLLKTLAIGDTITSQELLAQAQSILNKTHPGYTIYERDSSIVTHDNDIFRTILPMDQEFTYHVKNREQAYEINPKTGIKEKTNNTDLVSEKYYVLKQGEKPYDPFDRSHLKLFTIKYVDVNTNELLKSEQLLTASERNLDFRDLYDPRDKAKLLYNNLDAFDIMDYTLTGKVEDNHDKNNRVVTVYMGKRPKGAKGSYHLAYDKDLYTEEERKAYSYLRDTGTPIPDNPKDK
As to the kind of experiment: S. pyogenes streptokinase expression inhibitors, potency, dose response, plasminogen activation absorbance, OD405 (AID 1914).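 Note: secreted streptokinase activity via plasminogen activation per viability signal from cell pellet.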 It counts as functional, Streptococcus pyogenes M1 GAS.

In another assay the test system is Streptococcus. As to the kind of experiment: Group A Streptococcus viability loss, dose response, counter-screen for streptokinase expression inhibitor project, luminescence, BacTiterGlo (AID 1915).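 Note: potency for reduction of bacterial viability or growth.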 It counts as functional, organism-based. A general note: A counterscreen serves to expose hits that act by an unwanted route or on another target.
For assay [10], the target named is Disintegrin and metalloproteinase domain-containing protein 17 (Homo sapiens, UniProt P78536). Briefly: exosite inhibitors of ADAM17, dose response, biochemical (AID 743260).
Chain of Disintegrin and metalloproteinase domain-containing protein 17 (P78536 whole entry, the tested form may be a part): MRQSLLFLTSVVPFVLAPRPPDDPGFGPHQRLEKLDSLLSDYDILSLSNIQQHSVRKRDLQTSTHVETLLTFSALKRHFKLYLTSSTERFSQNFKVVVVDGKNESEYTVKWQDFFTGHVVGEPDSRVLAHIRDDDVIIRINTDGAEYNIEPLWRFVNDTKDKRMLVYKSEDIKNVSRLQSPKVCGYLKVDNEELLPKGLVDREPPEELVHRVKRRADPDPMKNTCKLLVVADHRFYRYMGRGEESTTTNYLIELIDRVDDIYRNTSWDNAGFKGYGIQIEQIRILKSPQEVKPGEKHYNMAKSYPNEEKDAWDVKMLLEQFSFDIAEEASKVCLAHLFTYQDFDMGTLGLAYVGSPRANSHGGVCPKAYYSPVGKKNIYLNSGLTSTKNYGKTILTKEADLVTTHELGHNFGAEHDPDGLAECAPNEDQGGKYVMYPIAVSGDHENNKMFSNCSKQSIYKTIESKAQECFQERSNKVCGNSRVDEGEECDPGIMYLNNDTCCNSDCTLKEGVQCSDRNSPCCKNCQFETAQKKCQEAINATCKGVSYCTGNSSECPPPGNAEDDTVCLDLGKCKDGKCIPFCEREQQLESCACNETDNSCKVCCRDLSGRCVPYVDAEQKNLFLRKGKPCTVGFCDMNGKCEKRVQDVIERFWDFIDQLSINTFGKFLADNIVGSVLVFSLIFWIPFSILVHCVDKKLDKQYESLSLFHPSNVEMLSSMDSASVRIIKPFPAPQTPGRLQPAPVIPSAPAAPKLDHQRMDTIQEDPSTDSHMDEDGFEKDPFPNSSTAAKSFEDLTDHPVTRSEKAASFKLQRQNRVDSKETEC
A short description of assay [11]: ADAM10 protease inhibitors, dose response, selectivity assay for ADAM17 exosite inhibitor project, biochemical, FRET peptide substrate, recombinant human ADAM10 (AID 743259).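 Note: ADAM10 enzyme cleaving a FRET peptide substrate.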
Assay [12] in a line: THP-1 cell cytotoxicity, dose response, cytotoxicity control for Vif-APOBEC3G degradation inhibitor project, THP-1 cells (AID 1117359). It counts as functional. The settings on record: Human immunodeficiency virus 1, THP-1.
The nature of assay [13]: human group III sPLA2 inhibitors, dose response, biochemical, QFRET, IC50 (AID 743457).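 Note: green fluorescence rise as the enzyme cleaves BODIPY PC-A2 in liposomes; potency for inhibition of the enzyme.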
Assay [14] deals with T2, RNA-binding protein pos-1 (Caenorhabditis elegans, UniProt G5EF15).
T2 sequence (G5EF15 whole entry): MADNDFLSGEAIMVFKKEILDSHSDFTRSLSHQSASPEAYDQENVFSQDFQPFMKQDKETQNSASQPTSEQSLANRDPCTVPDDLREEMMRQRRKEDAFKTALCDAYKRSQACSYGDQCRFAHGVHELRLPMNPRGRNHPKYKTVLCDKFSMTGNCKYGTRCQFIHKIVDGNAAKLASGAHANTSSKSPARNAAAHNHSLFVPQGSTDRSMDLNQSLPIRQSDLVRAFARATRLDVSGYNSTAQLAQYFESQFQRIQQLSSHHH
Briefly: inhibitors of POS-1/mex-3 RNA binding, dose response, biochemical, fluorescence polarization (AID 1964). (In general: In fluorescence polarisation assays a small probe gives low polarisation when free and higher when bound to something large.)

In assay [15] the target is T3, Zinc finger protein mex-5 (Caenorhabditis elegans, UniProt Q9XUB2).
T3 sequence (Q9XUB2 whole entry): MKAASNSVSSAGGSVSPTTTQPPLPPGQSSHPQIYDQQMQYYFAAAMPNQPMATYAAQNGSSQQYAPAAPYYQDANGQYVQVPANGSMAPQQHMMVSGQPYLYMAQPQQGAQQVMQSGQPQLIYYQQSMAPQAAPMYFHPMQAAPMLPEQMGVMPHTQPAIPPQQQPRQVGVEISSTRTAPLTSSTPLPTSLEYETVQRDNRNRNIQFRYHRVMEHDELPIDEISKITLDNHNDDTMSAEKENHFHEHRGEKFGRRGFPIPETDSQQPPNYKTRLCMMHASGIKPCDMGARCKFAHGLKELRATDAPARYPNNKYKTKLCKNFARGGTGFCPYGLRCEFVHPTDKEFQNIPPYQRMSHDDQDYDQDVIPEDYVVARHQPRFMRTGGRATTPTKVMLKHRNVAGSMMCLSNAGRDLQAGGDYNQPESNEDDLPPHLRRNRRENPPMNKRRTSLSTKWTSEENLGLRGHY
Briefly: MEX-5/TCR-2 RNA interaction inhibitors, dose response, biochemical, C. elegans, fluorescence polarization (AID 1960).

Assay [16] deals with Heat shock protein HSP 90-alpha (Homo sapiens, UniProt P07900). As to the kind of experiment: Luminescence-based dose response biochemical high throughput screening assay for inhibitors of the Heat Shock Protein 90 (HSP90). [Related pubchem assays: 1831 (Summary AID.), 1846 (Confirmation screen.), 1789 (Primary screen.)].
Assay [17] can be described thus: Concentration-dependent survival of SW480 colon cancer line, luminescence detection with CellTiter-Glo, half-maximal inhibitory concentration (AID 1117338). It counts as functional. On the technique in general: Cellular ATP, detected with luciferase, serves as a proxy for viable cell number.
Assay [18] can be described thus: RKO cell viability reduction, dose response, CellTiter-Glo luminescence (AID 1117322). It counts as functional.
The nature of assay [19]: cytotoxicity toward HCT116 cells – cell-based, CellTiter-Glo luminescence, IC50, dose response (AID 1117332). It counts as functional. Conditions: HCT-116.
Assay [20] can be described thus: SNU-C1 cell viability reduction, dose response, CellTiter-Glo luminescence (AID 1117323). It counts as functional, cell-based.
Assay [21] can be described thus: cytotoxicity toward Colo320 cells – cell-based, CellTiter-Glo luminescence, IC50, dose response (AID 1117334). Conditions: COLO 320. It counts as functional.
The nature of assay [22]: cytotoxicity toward HT-29 cells – cell-based, CellTiter-Glo luminescence, IC50, dose response (AID 1117330). It counts as functional.
Assay [23] is described as follows: CellTiter-Glo luminescent dose response of DLD-1 viability loss (AID 1117352). It counts as functional.
Assay [24] is described as follows: HCT116 cell viability decrease, GSK3B pretreatment – CellTiter-Glo, IC50, dose response (AID 1117339). It counts as functional. Conditions: HCT-116.

Activity calls are given as the source filed them.

As to `O=C(c1ccc(F)cc1)N1CC(=O)N2[C@H](CO)[C@H](c3ccc(-c4cccnc4)cc3)[C@H]2C1`, the AC50 (commonly the concentration at which the activity in the assay is half-maximal) in assay [1] is 1.2 µM (active); in assay [2], > 100 µM (inactive); in [3] it was 0.821 µM (active); in assay [4], 0.964 µM (active); in [5], 1.27 µM (active).

As for `CO[C@@H]1CN(C)C(=O)c2cc(NC(C)=O)ccc2OC[C@@H](C)N(Cc2ccccc2C(=O)O)C[C@@H]1C`, the AC50 in assay [6] was 23.6 µM (active).

`C=CCSc1nnc(NC(=O)c2cn(CC)c3nc(C)ccc3c2=O)s1`: the AC50 in [7] was > 30 µM (inactive).

Take `CC1Cc2cc(-c3csc(NC(=O)Cc4ccccc4)n3)ccc2N1S(C)(=O)=O` (configuration not stated): the IC50 – broadly, the concentration needed to halve the response being measured – in assay [8] was 6.11 µM (active).

Take `COc1ccc(C2CC(O)(c3ccccc3)Oc3c(C)ccc(C)c32)cc1` (configuration not stated): the EC50 (in assay [9]; at Streptokinase A; in the assay on Streptococcus) was > 150 µM (not active) each time. The IC50 in assay [10] is > 69.5 µM (inactive); in [11], 12.7 µM (inactive). Besides, in [12], the CC50 (in general, the concentration at which the toxic effect on the cells reaches its halfway point) was 28.5 µM (active).

In the case of `COc1ccccc1N=C(S)NNC(=O)c1nn(C)cc1Cl`, in assay [13], the IC50 is > 122 µM (inactive).

Consider `CC(C)Cc1c(C#N)c(S)nc2c1CCCC2`, for which the IC50 in assay [13] was > 122 µM (inactive).

Turning to `O=c1oc2ccc(Cl)cc2nc1/C=C(\O)c1cccs1`, the EC50 (commonly the midpoint of the concentration-response curve) is 230 µM (active) in assay [14] and 153 µM (active) in [15]. In addition, in assay [16], the IC50 was 2.2 µM (active).

With `O=C1NCCN1CCN1CCC(c2cn(-c3ccc(F)cc3)c3ccc(Cl)cc23)CC1` [SERTINDOLE], the IC50 in assay [17] was 2.81 µM (active); in assay [18], 2.6 µM (active); in [19], 2.16 µM (active); in [20], 1.43 µM (active); in [21], 3.7 µM (active); in assay [22] it was 2.86 µM (active). Further, the IC50 in assay [23] is 5.62 µM (inactive); in assay [24], 3.52 µM (active).

(Values after ChEMBL document CHEMBL1201862, “PubChem BioAssay data set” (2004).)
